Laboratory results: the CheMixHub ionic liquid set

Test: xn = mol fraction of the nth substance listed

CCCC[N+](C)(C)C[c-]1cccc1.O=S(=O)([N-]S(=O)(=O)C(F)(F)F)C(F)(F)F.[Fe+2].c1cc[cH-]c1 + CC#N
100 kPa
Settings | electrical conductivity [S/m]
298 K, x1 = 0.03 | 2.17
303 K, x1 = 0.1 | 1.88
308 K, x1 = 0.08 | 2.2
308 K, x1 = 0.2 | 0.945
313 K, x1 = 0.07 | 2.47
318 K, x1 = 0.01 | 1.58
318 K, x1 = 0.06 | 2.67
318 K, x1 = 0.08 | 2.47
318 K, x1 = 0.15 | 1.58
318 K, x1 = 0.2 | 1.14
323 K, x1 = 0.01 | 1.64
323 K, x1 = 0.2 | 1.24
328 K, x1 = 0.05 | 2.95
328 K, x1 = 0.12 | 2.19
333 K, x1 = 0.01 | 1.75
333 K, x1 = 0.02 | 2.5
333 K, x1 = 0.03 | 2.92
333 K, x1 = 0.07 | 3
338 K, x1 = 0.05 | 3.2
338 K, x1 = 0.07 | 3.15
343 K, x1 = 0.07 | 3.28
343 K, x1 = 0.08 | 3.15
343 K, x1 = 0.15 | 2.19
348 K, x1 = 0.02 | 2.76
348 K, x1 = 0.07 | 3.42
348 K, x1 = 0.08 | 3.3
348 K, x1 = 0.12 | 2.74

[N-]=C=S.[NH4+] + CC(=O)[O-].CC[n+]1ccn(C)c1
101 kPa
Settings | electrical conductivity [S/m] | viscosity [mPa·s]
298.15 K, x1 = 0.3001 | 0.344 | 194.6
298.15 K, x1 = 0.3199 | 0.353 | 195.4
303.15 K, x1 = 0.1002 | 0.371 | 117.6
303.15 K, x1 = 0.1998 | 0.386 | 139.3
303.15 K, x1 = 0.3001 | 0.447 | 141.9
308.15 K, x1 = 0.1998 | 0.491 | 104
308.15 K, x1 = 0.2514 | 0.525 | –
308.15 K, x1 = 0.3413 | 0.587 | –
313.15 K, x1 = 0.3413 | 0.807 | 81.7
318.15 K, x1 = 0.1998 | 0.852 | 61.5
328.15 K, x1 = 0.1002 | – | 34.29
328.15 K, x1 = 0.3199 | – | 39.29
333.15 K, x1 = 0.02 | – | 25.64
333.15 K, x1 = 0.1002 | – | 28.06
333.15 K, x1 = 0.1998 | – | 31.2
333.15 K, x1 = 0.3001 | – | 31.43

CCCCCCCCCC[n+]1ccn(C)c1.[Cl-] + CC(C)O
298.15 K, 101.3 kPa, frequency 5e-05 MHz
Settings | electrical conductivity [S/m]
x1 = 0.01207 | 0.0497
x1 = 0.02515 | 0.0872
x1 = 0.03936 | 0.126
x1 = 0.05486 | 0.17
x1 = 0.07184 | 0.218
x1 = 0.09051 | 0.266
x1 = 0.1111 | 0.308
x1 = 0.134 | 0.337
x1 = 0.1597 | 0.348
x1 = 0.1884 | 0.343
x1 = 0.2211 | 0.326
x1 = 0.2583 | 0.312
x1 = 0.3013 | 0.325
x1 = 0.3514 | 0.399
x1 = 0.4106 | 0.584
x1 = 0.4815 | 0.944

CS(=O)(=O)[O-].C[N+](C)(CCO)CCO + CC(C)O
viscosity [mPa·s], 101 kPa
Settings | x1 = 0.0998 | x1 = 0.2001 | x1 = 0.3002 | x1 = 0.4004 | x1 = 0.4982 | x1 = 0.5999 | x1 = 0.6997 | x1 = 0.7978 | x1 = 0.8994 | x1 = 1
298.15 K | 5.62 | 13.5 | 30.1 | 61 | 123 | 227 | 385 | 628 | 1025 | 1495
303.15 K | 4.78 | 11.45 | 24.1 | 47.7 | 86.7 | 168 | 281 | 445 | 712 | 1021
308.15 K | 4.13 | 9.67 | 19.7 | 38 | 67.4 | 128.7 | 210 | 324 | 507 | 716
313.15 K | 3.6 | 8.13 | 16.3 | 30.7 | 53.4 | 89.6 | 159 | 243 | 370 | 513
318.15 K | 3.36 | 6.96 | 13.7 | 25.2 | 43 | 70.7 | 123.6 | 186 | 278 | 378
323.15 K | 2.83 | 6.02 | 11.86 | 21 | 35.1 | 56.7 | 87 | 143.8 | 211 | 282

OC1OC[C@@H](O)[C@H](O)[C@H]1O (stereo partly specified) + CCCCCCCCCCCCCCCC[N+](C)(C)C.[Br-] + O
viscosity [mPa·s], 100 kPa
Settings | 298.15 K | 308.15 K | 318.15 K
x2 = 7.19e-06, x1 = 0.001926 | 0.934 | 0.772 | 0.642
x2 = 7.19e-06, x1 = 0.002323 | 0.941 | 0.779 | 0.647
x2 = 7.19e-06, x1 = 0.002648 | 0.948 | 0.784 | 0.651
x2 = 7.2e-06, x1 = 0.0009003 | 0.914 | 0.756 | 0.629
x2 = 7.2e-06, x1 = 0.001314 | 0.922 | 0.763 | 0.634
x2 = 7.2e-06, x1 = 0.001634 | 0.928 | 0.768 | 0.638
x2 = 1.438e-05, x1 = 0.002366 | 0.948 | 0.784 | 0.651
x2 = 1.438e-05, x1 = 0.002756 | 0.957 | 0.791 | 0.656
x2 = 1.439e-05, x1 = 0.001528 | 0.931 | 0.77 | 0.639
x2 = 1.439e-05, x1 = 0.001964 | 0.94 | 0.777 | 0.645
x2 = 1.44e-05, x1 = 0.0009094 | 0.918 | 0.759 | 0.63
x2 = 1.44e-05, x1 = 0.001186 | 0.923 | 0.764 | 0.634
x2 = 2.157e-05, x1 = 0.002446 | 0.955 | 0.79 | 0.654
x2 = 2.157e-05, x1 = 0.002688 | 0.961 | 0.795 | 0.658
x2 = 2.158e-05, x1 = 0.00199 | 0.945 | 0.782 | 0.647
x2 = 2.159e-05, x1 = 0.001338 | 0.93 | 0.77 | 0.637
x2 = 2.159e-05, x1 = 0.001717 | 0.939 | 0.777 | 0.643
x2 = 2.16e-05, x1 = 0.0009887 | 0.923 | 0.763 | 0.632

CCCCCC[n+]1ccn(C)c1.O=[N+]([O-])c1cn[n-]c1 + CCCCCCCCCCCCCC[P+](CCCCCC)(CCCCCC)CCCCCC.O=S(=O)([N-]S(=O)(=O)C(F)(F)F)C(F)(F)F
Settings | viscosity [mPa·s]
283.15 K, 100 kPa, x2 = 0.899 | 820

CSCC[C@H](N)C(=O)O + CCCCCCCCCCCC[N+](C)(C)C.[Br-] + O
viscosity [mPa·s], 101 kPa
Settings | 293.15 K | 298.15 K | 303.15 K | 308.15 K | 313.15 K
x1 = 0.0001801, x2 = 0.0001083 | 1.019 | 0.904 | 0.811 | 0.746 | 0.677
x1 = 0.0001801, x2 = 0.0001624 | 1.024 | 0.907 | 0.814 | 0.749 | 0.68
x1 = 0.0001801, x2 = 0.0002165 | 1.03 | 0.909 | 0.816 | 0.75 | 0.681
x1 = 0.0001801, x2 = 0.0002706 | 1.034 | 0.912 | 0.818 | 0.752 | 0.683
x1 = 0.0001801, x2 = 0.0003247 | 1.04 | 0.915 | 0.82 | 0.754 | 0.685
x1 = 0.0001801, x2 = 0.0003788 | 1.044 | 0.919 | 0.823 | 0.756 | 0.687
x1 = 0.0001801, x2 = 0.0004329 | 1.046 | 0.922 | 0.829 | 0.758 | 0.689
x1 = 0.0001801, x2 = 0.0004869 | 1.049 | 0.927 | 0.834 | 0.76 | 0.691
x1 = 0.0001801, x2 = 0.000541 | 1.052 | 0.931 | 0.84 | 0.762 | 0.694
x1 = 0.0001802, x2 = 5.413e-05 | 1.013 | 0.9 | 0.81 | 0.745 | 0.672
x1 = 0.0008997, x2 = 0.0005439 | 1.07 | 0.912 | 0.836 | 0.761 | 0.683
x1 = 0.0008998, x2 = 0.0003808 | 1.061 | 0.906 | 0.819 | 0.751 | 0.672
x1 = 0.0008998, x2 = 0.0004351 | 1.063 | 0.908 | 0.822 | 0.753 | 0.675
x1 = 0.0008998, x2 = 0.0004895 | 1.066 | 0.91 | 0.831 | 0.756 | 0.679
x1 = 0.0008999, x2 = 0.000272 | 1.057 | 0.902 | 0.812 | 0.746 | 0.668
x1 = 0.0008999, x2 = 0.0003264 | 1.059 | 0.904 | 0.815 | 0.748 | 0.67
x1 = 0.0009, x2 = 0.0001632 | 1.053 | 0.899 | 0.809 | 0.74 | 0.663
x1 = 0.0009, x2 = 0.0002176 | 1.054 | 0.901 | 0.81 | 0.743 | 0.666
x1 = 0.0009001, x2 = 5.441e-05 | 1.048 | 0.894 | 0.805 | 0.732 | 0.658
x1 = 0.0009001, x2 = 0.0001088 | 1.051 | 0.896 | 0.807 | 0.735 | 0.66
x1 = 0.001798, x2 = 0.0001643 | 1.062 | 0.911 | 0.822 | 0.745 | 0.675
x1 = 0.001798, x2 = 0.000219 | 1.064 | 0.913 | 0.824 | 0.747 | 0.676
x1 = 0.001798, x2 = 0.0002738 | 1.066 | 0.916 | 0.827 | 0.749 | 0.678
x1 = 0.001798, x2 = 0.0003285 | 1.069 | 0.919 | 0.83 | 0.751 | 0.681
x1 = 0.001798, x2 = 0.0003832 | 1.073 | 0.921 | 0.832 | 0.756 | 0.683
x1 = 0.001798, x2 = 0.0004379 | 1.076 | 0.927 | 0.836 | 0.76 | 0.686
x1 = 0.001798, x2 = 0.0004927 | 1.079 | 0.932 | 0.84 | 0.764 | 0.692
x1 = 0.001798, x2 = 0.0005474 | 1.083 | 0.937 | 0.844 | 0.77 | 0.698
x1 = 0.001799, x2 = 5.476e-05 | 1.059 | 0.906 | 0.818 | 0.741 | 0.671
x1 = 0.001799, x2 = 0.0001095 | 1.06 | 0.909 | 0.82 | 0.743 | 0.673

CCCCCC[n+]1ccn(C)c1.O=[N+]([O-])c1cn[n-]c1 + CCCCCCCC[P+](CC)(CC)CC.O=S(=O)([N-]S(=O)(=O)C(F)(F)F)C(F)(F)F
Settings | viscosity [mPa·s]
288.15 K, 100 kPa, x2 = 0.1 | 770

CN1CCN(C)C1=O + CCCCCCCCn1cc[n+](C)c1.[Cl-]
100 kPa
Settings | viscosity [mPa·s]
288.15 K, x2 = 0.3018 | 87.7
288.15 K, x2 = 0.4964 | 614
293.15 K, x2 = 0.3991 | 158.4
303.15 K, x2 = 0.2056 | 16.57
303.15 K, x2 = 0.4964 | 230
308.15 K, x2 = 0.7994 | 1104
313.15 K, x2 = 0.4964 | 129.8
313.15 K, x2 = 0.7994 | 774
318.15 K, x2 = 0.4964 | 100.2
323.15 K, x2 = 0.4964 | 79.4
328.15 K, x2 = 0.105 | 3.05
328.15 K, x2 = 0.3991 | 31.3
333.15 K, x2 = 0.7007 | 148
